Measurements reported in patent US5348977A, “Cobalt complexes as anti-cancer agents” (Warner Lambert Company, priority 1991, dated 1994).

How the values were obtained:
[1] = tested on: AA8 cells; assay: Growth inhibition, AA8 cells with lethally-irradiated AA8 feeder cells, aerobic or hypoxic 18 h (Table 3); assay type: cell-based, hamster; conditions: for IC50: AA8, aerobic, 18 h exposure, read-out: IC50 (air) AA8; for HF(air): IC50 (AA8)/IC50 (UV4), aerobic, 1080 min; for IC50 (air)/IC50 (N2) AA8: aerobic IC50 /hypoxic IC50, AA8, 18 h
Procedure: (§1) IC50 Growth inhibition studies were performed as described in detail elsewhere (W. R. Wilson, R. F. Anderson and W. A. Denny. J. Med. Chem., 1989, 32, 23; G. J. Finlay, B. C. Baguley and W. R. Wilson. Anal. Biochem., 1984, 139, 172.), using 200 viable AA8 or 300 viable UV4 cells plus 5000 lethally-irradiated AA8 feeder cells per well in 96-well tissue culture dishes. AA8 and UV4 cells were maintained in logarithmic-phase growth in […] tissue culture flasks with subculture twice weekly by trypsinization. The growth medium was antibiotic-free Alpha MEM with 10% v/v heat-inactivated (56° C., 40 min) fetal calf serum. Doubling times were approximately 14h for AA8 and […] cells.
(§2) air/N2 ratio Ratio of IC50 values after exposure as detailed above under either aerobic (air) or hypoxic (N2) conditions (=aerobic IC50 /hypoxic IC50).
(§3) HF Ratio of IC50 values for a compound after exposure as detailed above against AA8 and UV4 cell lines (=IC50 (AA8)/IC50 (UV4)).

[2] = Square wave voltammetry, peak potential of cathodic wave; assay type: physicochemical; conditions: vs NHE, platinum disc electrode, 0.15 M (n-Bu4 N)ClO4 in CH2 Cl2, ferrocene internal reference
Source text: E1/2 Peak potentials (vs NHE) of cathodic wave, determined by square wave voltammetry at a platinum disc electrode in 0.15 M (n-Bu4 N)ClO4 in CH2 Cl2 with ferrocene as an internal reference.

[3] = tested on: UV4 cells; assay: Growth inhibition, UV4 cells with lethally-irradiated AA8 feeder cells, aerobic or hypoxic 18 h (Table 3); assay type: cell-based; conditions: aerobic IC50 /hypoxic IC50, UV4, 18 h
Procedure: as §1, §2, §3

[4] = tested on: AA8 cells; assay: Growth inhibition, AA8 cells, aerobic 18 h (Table 2); assay type: cell-based, hamster; conditions: 18 h exposure, 5 determinations
Procedure: (§4) ([Co(Macac)2 (DCE)]ClO4) was prepared as described in Example E. Growth inhibition studies were performed as described in detail by W. R. Wilson, R. F. Anderson and W. A. Denny in J. Med. Chem., 1989 32, 23 and by G. J. Finlay, B. C. Baguley and W. R. Wilson in Anal. Biochem., 1984, 139, 172, herein specifically incorporated by reference. 200 AA8 cells in 96 well tissue culture dishes, 300 UV4 cells in 96 well tissue culture dishes, 300 UV5 cells in 96 well tissue culture dishes, 50 EMT6 cells in 96 well tissue culture dishes, 200 SCC7 cells in 96 well tissue culture dishes, 1500 FME cells in 96 well tissue culture dishes and 500 HCT-8 cells in 96 well tissue culture dishes were prepared. The cells were maintained in logarithmic-phase growth in 25 cm tissue culture flasks with subculture twice weekly by trypsinization. The growth medium was antibiotic-free Alpha MEM with 10% v/v heat-inactivated (56° C., 40 min.) fetal calf serum. Doubling times were approximately 14 hours for AAS, 16 hours for UV4, 16 hours for UV5, 10 hours for EMT6, 14 hours for SCC7, 24 hours for FME and 20 hours for HCT-8 cells. Cultures were tested for mycoplasma contamination frequently, using a cytochemical staining method (I. R. Chen, Exp. Cell Res., 1977, 104, 255). […]

[5] = tested on: UV4 cells; assay: Growth inhibition, UV4 cells, aerobic 18 h (Table 2); assay type: cell-based; conditions: 18 h exposure, 5 determinations
Procedure: as §4

[6] = tested on: UV5 cells; assay: Growth inhibition, UV5 cells, aerobic 18 h (Table 2); assay type: cell-based; conditions: 18 h exposure, 1 determination
Procedure: as §4

[7] = tested on: EMT6 cells; assay: Growth inhibition, EMT6 cells, aerobic 18 h (Table 2); assay type: cell-based; conditions: 18 h exposure, 6 determinations
Procedure: as §4

[8] = tested on: SCC7 cells; assay: Growth inhibition, SCC7 cells, aerobic 18 h (Table 2); assay type: cell-based; conditions: 18 h exposure, 1 determination
Procedure: as §4

[9] = tested on: FME cells; assay: Growth inhibition, FME cells, aerobic 18 h (Table 2); assay type: cell-based, human
Procedure: as §4

[10] = tested on: HCT-8 cells; assay: Growth inhibition, HCT-8 cells, aerobic 18 h (Table 2); assay type: cell-based; conditions: HCT-8 (human colon carcinoma), 18 h exposure, 1 determination
Procedure: as §4

Substance | IC50 [1] [nM] | HF(air) [1] | IC50 (air)/IC50 (N2) AA8 [1] | E1/2 [2] [mV] | IC50 (air)/IC50 (N2) UV4 [3] | IC50 [4] [nM] | IC50 [5] [nM] | IC50 [6] [nM] | IC50 [7] [nM] | IC50 [8] [nM] | IC50 ([9]; FME (human breast carcinoma), aerobic, 18 h exposure, 6 determinations) [nM] | potency in human lines as compared to AA8 ([9]; FME and HCT-8 versus AA8, aerobic) | IC50 [10] [nM]
[Co(Macac)2 (BCE)]ClO4 [Compound 2] | 992000 | 3.25 | < 1 | -420 |  |  |  |  |  |  |  |  | 
[Co(Pracac)2 (BCE)]ClO4 [Compound 4] | 18500 ± 3300 | 3.5 ± 0.7 | 0.85 ± 0.35 | -500 | 1.20 ± 0.50 |  |  |  |  |  |  |  | 
[Co(Clacac)2 (BCE)]Cl [Compound 5] | 26100 ± 2000 | 12.8 ± 3.5 | 0.54 ± 0.12 | -132 | 0.92 ± 0.21 |  |  |  |  |  |  |  | 
[Co(Etacac)2 (BCE)]ClO4 [Compound 3] | 139000 ± 18300 | 4.8 ± 1.4 | 0.79 ± 0.24 | -460 | 1.77 ± 0.75 |  |  |  |  |  |  |  | 
[Co(Etacac)2 (DCE)]Cl.2H2 O [Compound 8] | 1560 ± 80 | 21.2 ± 4.0 | 1.28 ± 0.23 | -352 | 2.14 ± 0.56 |  |  |  |  |  |  |  | 
[Co(acac)2 (DCE)]ClO4 [Compound 6] | 1750 ± 100 | 48.2 ± 9.0 | 1.33 ± 0.13 | -232 | 0.85 ± 0.03 |  |  |  |  |  |  |  | 
[Co(acac)2 (BCE)]ClO4 [Compound 1] | 893000 ± 161000 | 14.0 ± 4.3 | 0.42 ± 0.06 | -308 | 3.76 ± 1.46 |  |  |  |  |  |  |  | 
[Co(Macac)2 (DCE)]ClO4 [Compound 7] | 2910 ± 470 | 50.8 ± 3.7 | 2.81 ± 0.16 | -307 | 2.03 ± 0.47 | 4560 ± 620 | 100 ± 20 | 2640 | 1610 ± 210 | 310 | 1300 ± 130 | higher potency (lower IC50) in both of the human lines as compared to AA8 | 4440
